Measurements published in US11285132B2, “Uses of indolinone compounds” (Oncternal Therapeutics, Inc., priority 2016, dated 2022).

Tested on: DLBCL cell lines
Experiment: Combination with other targeted agents, summary over DLBCL cell lines
Format: cell-based
Procedure: The latter synergism could be linked to the previously mentioned negative trend between TK-216 IC50 values and the presence of BCL2 translocation.
Cell lines were exposed to YK-4-279 or TK-216, alone or in combination with other compounds, for 72 h using a Tecan D300e Digital Dispenser and 96 well plates. Cell proliferation was measured with MTT. Synergy was determined with the Chou-Talalay combination index. Gene expression profiling (GEP) was performed with the Illumina HumanHT 12 Expression BeadChips. In vivo studies were done in NOD-SCID mice and treatments started with 60 mm3 tumor volumes sc.
Since lenalidomide is active in mantle cell lymphoma (MCL), the synergism of the combination of TK-216 and lenalidomide was confirmed also in two MCL cell lines.

`O=C(CC1(O)C(=O)Nc2c(Cl)ccc(Cl)c21)c1ccc(C2CC2)cc1` (stereo not shown) [TK216, 4,7-Dichloro-3-(2-(4-cyclopropylphenyl)-2-oxoethyl)-3-hydroxyindolin-2-one] was tested, and the “combination of TK-216 with the BET inhibitor OTX015 (MK-8628)” value (with OTX015, DLBCL cell lines) was “synergism in 2/4 cells and additive effect in 1/4 cells”, the “combination of TK-216 with the immunomodulator lenalidomide” value (with lenalidomide, activated B cell type DLBCL) was “synergism in 2/2 activated B cell type DLBCL” and the “combination of TK-216 with the anti-CD20 monoclonal antibody rituximab” value (with rituximab, DLBCL cell lines) was “synergism in 2/3 cells”. For the same compound, the “combination of TK-216 with the BCL2 inhibitor venetoclax” value (with venetoclax, DLBCL cell lines) was “synergism in 3/4 cells”.
